Experimental data: US7019001B2, “Substituted benzothiazole amide derivatives” (Hoffman-La Roche Inc., priority 2001, dated 2006)

How the values were obtained:
[1] = target: T1, human adenosine A2A receptor (Homo sapiens, UniProt P29274); assay: [3H]-SCH-58261 binding assay, human adenosine A2A receptor (CHO cell membranes, SPA); conditions: displacement of [3H]-SCH-58261 (1 nM); recombinant receptor in CHO membranes; Ki by Cheng-Prussoff equation; read-out: hA2 (pKi) (converted)
T1 construct: expressed in transfected cells; host or cells: CHO cells, semliki forest virus expression system; washed membrane pellet used
Procedure: Human Adenosine A2A Receptor
The human adenosine A2A receptor was recombinantly expressed in chinese hamster ovary (CHO) cells using the semliki forest virus expression system. Cells were harvested, washed twice by centrifugation, homogenised and again washed by centrifugation. The final washed membrane pellet was suspended in a Tris (50 mM) buffer containing 120 mM NaCl, 5 mM KCl, 2 mM CaCl2 and 10 mM MgCl2 (pH 7.4) (buffer A). The [^3H]-SCH-58261 (Dionisotti et al., 1997, Br J Pharmacol 121, 353; 1 nM) binding assay was carried out in 96-well plates in the presence of 2.5 μg of membrane protein, 0.5 mg of Ysi-poly-1-lysine SPA beads and 0.1 U adenosine deaminase in a final volume of 200 μl of buffer A. Non-specific binding was defined using xanthine amine congener (XAC; 2 μM). Compounds were tested at 10 concentrations from 10 μM–0.3 nM. All assays were conducted in duplicate and repeated at least two times. Assay plates were incubated for 1 hour at room temperature before centrifugation and then bound ligand determined using a Packard Topcount scintillation counter. IC50 values, the concentration where 50% of the […] binding is displaced, were calculated using a non-linear curve fitting program and Ki values calculated using the Cheng-Prussoff equation.

T1 sequence (P29274 whole entry): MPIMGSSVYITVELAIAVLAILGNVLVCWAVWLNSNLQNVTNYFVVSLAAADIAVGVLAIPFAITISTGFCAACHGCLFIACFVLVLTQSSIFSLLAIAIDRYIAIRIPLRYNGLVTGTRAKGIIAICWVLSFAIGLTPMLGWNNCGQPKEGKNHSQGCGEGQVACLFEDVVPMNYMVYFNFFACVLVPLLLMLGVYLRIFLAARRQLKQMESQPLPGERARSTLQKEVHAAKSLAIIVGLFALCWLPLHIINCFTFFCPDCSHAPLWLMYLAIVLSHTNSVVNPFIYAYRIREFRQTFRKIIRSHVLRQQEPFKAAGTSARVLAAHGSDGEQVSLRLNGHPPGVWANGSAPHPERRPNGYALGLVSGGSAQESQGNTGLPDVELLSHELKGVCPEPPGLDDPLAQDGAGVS

Ki [1]: 0.02 µM
melting point: 198 to 200 °C
Compound: COc1ccc(N2CCOCC2)c2sc(NC(=O)N(C)[C@H]3CC[C@@H](OC)CC3)nc12 [Example 25, (cis)-1-(4-Methoxy-cyclohexyl)-3-(4-methoxy-7-morpholin-4-yl-benzothiazol-2-yl)-1-methyl-urea]
